Measurements published in US20250268894A1, “MACROCYCLE COMPOUNDS FOR THE TREATMENT OF CANCER” (Hoffmann-La Roche Inc., priority 2022, published 2025).

What was measured:
[1] = system: NCI-H358 cells (KRAS G12C); experiment: Cell viability assay (Cell Counting Kit-8), KRAS G12C; assay type: cell-based; conditions: Homo sapiens, NCI-H358, 72 hrs
Description: (§1) The purpose of this cellular assay was to determine the effects of test compounds on the proliferation of human cancer cell lines NCI-H358 (ATCC-CRL5807) cells, AGS (ATCC-CRL-1739) cells, SW620 (ATCC-CCL-227) over a 3-day treatment period by quantifying the amount of NADPH present at endpoint using Cell Counting Kit-8.
(§2) Cells were seeded at 5,000 cells/well (NCI-H358), 2,000 cells/well (AGS)2,000 cells/well (SW620) in 96-well assay plates (Corning-3699) and incubated overnight. On the day of the assay, diluted compounds were then added in a final concentration of 0.5% DMSO. After 72 hrs incubation, a tenth of the volume of cell counting kit 8 (Dnjindo-CK04) was added into each well. Read the signal (OD450 minus OD650) using EnVision after 2 hrs incubation. IC50 was determined by fitting a 4-parameter sigmoidal concentration response model.

[2] = system: AGS cells (KRAS G12D); experiment: Cell viability assay (Cell Counting Kit-8), KRAS G12D; assay type: cell-based; conditions: Homo sapiens, 72 hrs
Description: as §1, §2

[3] = system: SW620 cells (KRAS G12V); experiment: Cell viability assay (Cell Counting Kit-8), KRAS G12V; assay type: cell-based; conditions: Homo sapiens, SW-620, SW620, 72 hrs
Description: as §1, §2

[4] = target: KRAS G12C-BRAF complex (Homo sapiens (Human), UniProt P01116+P62937, G12C); experiment: KRAS-BRAF with CYPA (500 nM) interaction assay (TR-FRET), G12C; assay type: biochemical
KRAS G12C-BRAF complex, sequence (P01116-2 other isoform, or with tags, fused parts or gaps G12C): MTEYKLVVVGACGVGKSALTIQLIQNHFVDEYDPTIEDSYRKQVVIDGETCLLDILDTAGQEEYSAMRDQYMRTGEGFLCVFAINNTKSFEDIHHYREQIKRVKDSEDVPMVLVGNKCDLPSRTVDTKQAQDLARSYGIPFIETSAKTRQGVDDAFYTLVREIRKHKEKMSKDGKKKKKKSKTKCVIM
KRAS G12C-BRAF complex, sequence (P62937 whole entry): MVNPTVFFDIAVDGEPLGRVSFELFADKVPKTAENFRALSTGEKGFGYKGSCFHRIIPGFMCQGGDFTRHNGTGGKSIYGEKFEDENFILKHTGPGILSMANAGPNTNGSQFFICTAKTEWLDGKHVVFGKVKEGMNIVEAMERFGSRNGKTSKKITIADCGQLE
Description: (§3) Kras-BRAF with CYPA (500 nM) Interaction Assay In this example, TR-FRET was also used to measure the compound or compound-CYPA dependent disruption of the KRAS G12C-BRAF complex. This protocol was also used to measure disruption of KRAS G12D or KRAS G12V binding to BRAF by a compound of the invention, respectively. […] Compound was present in plate wells as a 16-point 3-fold dilution series starting at a final concentration of 10 μM and incubated for 3 hours. […] TR-FRET signal was read on a […] microplate reader (Ex320 nm, Em 665/615 nm). Compounds that facilitate disruption of the KRAS-BRAF complex were identified as those eliciting a decrease in the TR-FRET ratio relative to DMSO control wells.

[5] = target: KRAS G12D-BRAF complex (Homo sapiens (Human), UniProt P01116+P62937, G12D); experiment: KRAS-BRAF with CYPA (500 nM) interaction assay (TR-FRET), G12D; assay type: biochemical
KRAS G12D-BRAF complex, sequence (P01116-2 other isoform, or with tags, fused parts or gaps G12D): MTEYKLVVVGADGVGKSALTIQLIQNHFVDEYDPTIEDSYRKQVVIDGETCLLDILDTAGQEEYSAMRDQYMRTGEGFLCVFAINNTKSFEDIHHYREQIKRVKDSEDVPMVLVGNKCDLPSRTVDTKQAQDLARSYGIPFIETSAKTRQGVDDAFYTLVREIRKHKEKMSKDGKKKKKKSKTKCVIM
KRAS G12D-BRAF complex, sequence (P62937 whole entry): as the sequence (P62937 whole entry) above
Description: as §3

[6] = target: KRAS G12V-BRAF complex (Homo sapiens (Human), UniProt P01116+P62937, G12V); experiment: KRAS-BRAF with CYPA (500 nM) interaction assay (TR-FRET), G12V; assay type: biochemical
KRAS G12V-BRAF complex, sequence (P01116-2 other isoform, or with tags, fused parts or gaps G12V): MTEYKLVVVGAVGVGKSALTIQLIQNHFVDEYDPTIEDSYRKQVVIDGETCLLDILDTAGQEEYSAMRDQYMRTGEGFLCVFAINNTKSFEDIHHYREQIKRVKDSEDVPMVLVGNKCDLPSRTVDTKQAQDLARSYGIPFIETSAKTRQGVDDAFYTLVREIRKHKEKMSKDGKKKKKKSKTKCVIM
KRAS G12V-BRAF complex, sequence (P62937 whole entry): as the sequence (P62937 whole entry) above
Description: as §3

[7] = system: phosphorylation of ERK, KRAS G12C in NCI-H358 cells; experiment: pERK inhibition assay, KRAS G12C in NCI-H358 cells; assay type: cell-based, human; conditions: Homo sapiens, NCI-H358, 4 hours
Description: (§4) This assay is to measure the ability of test compounds in inhibiting the phosphorylation of ERK, the downstream signaling of KRAS G12C in NCI-H358 cells, KRAS G12D in AGS cells, and KRAS G12V in SW620. NCI-H358 (ATCC-CRL5807) cells, AGS (ATCC-CRL-1739) cells, SW620 (ATCC-CCL-227) cells were all grown and maintained using RPMI-1640 medium (Thermo Fisher Scientific) with 10% fetal bovine serum and 1% penicillin/streptomycin. On the day prior to compound addition, cells were plated in tissue culture-treated 96 well plates (Corning-3699) at a density of 30,000 cell/well, 20,000 cell/well, 30,000 cell/well for NCI-H358, AGS and SW620 respectively, and allowed for attachment overnight. Diluted compounds were then added in a final concentration of 0.5% DMSO. After 4 hours of incubation, the medium was removed, 100 μL of 4% formaldehyde was added, and the assay plates were incubated at room temperature for 20 minutes. The plates were then washed once with phosphate buffered saline (PBS), and permeabilized with 100 μL of chilled methanol for 10 minutes. Non-specific antibody binding to the plates was blocked using 50 μL 1X BSA blocking buffer (Thermo-37520, 10-fold dilution by Phosphate-Buffered Saline Tween (PBST) for at least 1 hour at room temperature.
(§5) The amount of phosphor-ERK was determined using an antibody specific for phosphorylated form of ERK. Primary antibody (PERK, CST-4370, Cell Signaling Technology) was diluted 1:300 in blocking buffer, with 50 μL aliquoted to each well, and incubated overnight at 4° C. Cells was washed five times for 5 minutes with PBST. Secondary antibody (HRP-linked anti-rabbit IgG, CST-7074, Cell Signaling Technology) was diluted 1:1000 in blocking buffer, and 50 μL was added to each well and incubated 1-2 hrs at room temperature. Cells was washed […] for 5 minutes with PBST, 100 μL TMB ELISA substrate (abcam-ab171523) were added and gently shake for 20 minutes. 50 μL stop solution (abcam-ab171529) were added, and then read the signal (OD450) by EnVision.
(§6) IC50 was determined by fitting a 4-parameter sigmoidal concentration response model.

[8] = system: phosphorylation of ERK, KRAS G12D in AGS cells; experiment: pERK inhibition assay, KRAS G12D in AGS cells; assay type: cell-based, human; conditions: Homo sapiens, 4 hours
Description: as §4, §5, §6

[9] = system: phosphorylation of ERK, KRAS G12V in SW620 cells; experiment: pERK inhibition assay, KRAS G12V in SW620; assay type: cell-based, human; conditions: Homo sapiens, SW-620, SW620, 4 hours
Description: as §4, §5, §6

Row | Compound | IC50 [1] [µM] | IC50 [2] [µM] | IC50 [3] [µM] | IC50 [4] [µM] | IC50 [5] [µM] | IC50 [6] [µM] | IC50 [7] [µM] | IC50 [8] [µM] | IC50 [9] [µM]
1 | CCn1c(-c2cc(N3CCOCC3)cnc2[C@H](C)OC)c2c3cc(c(F)cc31)-c1csc(n1)C[C@H](NC(=O)[C@H](C(C)C)N(C)C(=O)N1CC(C(F)(F)F)C1)C(=O)N1CCC[C@H](N1)C(=O)OCC(C)(C)C2 (atropisomer, axis not shown; (M)) [Example 14, N-[(1S)-1-[[(7S,13S)-21-ethyl-24-fluoro-(20M)-20-[2-[(1S)-1-methoxyethyl]-5-morpholino-3-pyridyl]-17,17-dimethyl-8,14-dioxo-15-oxa-4-thia-9,21,27,28-tetrazapentacyclo[17.5.2.1^2,5.1^9,13.0^22,26]octacosa-1 (25),2,5 (28),19,22 (26),23-hexaen-7-yl]carbamoyl]-2-methyl-propyl]-N-methyl-3-(trifluoromethyl) azetidine-1-carboxamide] | 0.1 | > 10 | 0.073 | > 10 | > 10 | > 10 | 0.028 | 0.032 | 0.012
2 | CO[C@@H](C)c1ncc(N2CCN(CC(F)(F)F)CC2)cc1-c1c2c3c(F)c(ccc3n1CC(F)(F)F)-c1csc(n1)C[C@H](NC(=O)[C@H](C(C)C)N(C)C(=O)N1CCOCC1)C(=O)N1CCC[C@H](N1)C(=O)OCC(C)(C)C2 (atropisomer, axis not shown; (M)) [Example 17, N-[(1S)-1-[[(7S,13S)-25-fluoro-(20M)-20-[2-[(1S)-1-methoxyethyl]-5-[4-(2,2,2-trifluoroethyl)piperazin-1-yl]-3-pyridyl]-17,17-dimethyl-8,14-dioxo-21-(2,2,2-trifluoroethyl)-15-oxa-4-thia-9,21,27,28-tetrazapentacyclo[17.5.2.1^2,5.1^9,13.0^22,26]octacosa-1 (25),2,5 (28),19,22 (26),23-hexaen-7-yl]carbamoyl]-2-methyl-propyl]-N-methyl-morpholine-4-carboxamide] | 0.004 | 0.046 | 0.006 | 0.002 | 0.007 | 0.004 | 0.008 | 0.004 | 0.004
